# Data taken from patent US20230405003A1, “APPLICATION OF THYMIDINE DERIVATIVE IN PREPARATION OF DRUGS” (ONQUALITY PHARMACEUTICALS CHINA LTD., priority 2020, published 2023).
# Columns and labels:
# [1] = tested on: hand-foot syndrome caused by capecitabine in SD rats; assay: Rat model of hand-foot syndrome caused by capecitabine, gel application; type: in vivo; conditions: capecitabine 4000 mg/kg once daily, 40 days; for Control Rate Forepaws / Control Rate Hindpaws: rats
# Procedure: A rat animal model was established. 6-week aged female SD rats were administered with capecitabine by daily gavage. The degree of hand-foot syndrome in paws is similar, and there was no difference between the left and right paws. Similar to the human body, rats developed hand-foot syndrome after oral administration of capecitabine. The causes of the two are the same, and the disorder is also very similar. Therefore, rats are very good animal models for simulating the hand-foot syndrome caused by capecitabine.
# After SD rats were fed and adapted for one week (about 200 g), the rats were divided into groups, with 10 rats in each group. Then, the rats were subject to gavage administration. Capecitabine was dissolved in a 1:1 mixed solution of castor oil and ethanol and diluted for three times with PBS buffer. After gavage, the rats were fixed with a fixed cylinder, and a gel of thymidine derivative (or a compounded gel of thymidine derivative and uridine derivative) was applied to double hind paws (about 1 cm*3 cm) of the rats in group of administration (the types and concentrations are shown in Table 4), and a blank gel was applied to the group of blank (as a blank control). After approximately 4 hours of application, the rats were released after 4 hours, wiped with clean water to remove any residual drug at the application site, and allowed back to the cage. The thymidine derivative gel (or the compounded gel of thymidine derivative and uridine derivative) was administered with gavage every day. The gavage and application tests are repeated daily until the group of blank has developed obvious hand-foot syndrome.
# Table 4 lists the combinations of animal experiments of capecitabine and the thymidine derivative gel (or the compounded gel of thymidine derivative and uridine derivative) and the corresponding experimental results (wherein, the data in the column of control rate=the occurrence rate of hand-foot syndrome in group of blank—the occurrence rate of hand-foot syndrome in group of administration). […]
# HaCaT cells = assay: Relief of 5-FU proliferative toxicity to HaCaT cells (CCK-8 cell survival); type: cell-based; conditions: for Cell Survival Rate (increased percentage of cell survival compared with the Group of 5-FU): 5-Fu 20 μM, HaCaT cells; for activation at 1 µM: compound 1 μM; for activation at 10 µM: compound 10 μM; for activation at 100 µM: compound 100 μM; for activation at 1000 µM: compound 1000 μM
# Procedure: The cultured skin cell HaCaTs were digested, counted, and inoculated into a 96-well plate with 5000-10000 cells in each well. After 24 h of culture, the wells were divided into Group of blank solvent control, Group of 5-FU, Group of 5-FU+thymidine derivative, Group of 5-FU+the combination of thymidine derivative and uridine derivative. […] adding a solution of 5-FU and a solution of thymidine derivative (the final concentrations of 5-FU and thymidine derivative are shown in Table 3, the solution of thymidine is an aqueous solution, while the solutions of thymidine derivatives are all DMSO solutions); Group of 5-FU+the combination of thymidine derivative and uridine derivative: adding a solution of 5-FU and a mixed solution of thymidine derivative and uridine derivative (the final concentrations of the solution of 5-FU and the mixed solution of thymidine derivative+uridine derivative are shown in Table 3, the solution of thymidine is an aqueous solution, while the mixed solutions of thymidine derivative+uridine derivative are all DMSO solutions); Group of blank solvent control: adding the same type of solution as those of the corresponding Group of 5-FU or Group of 5-FU+thymidine derivative (or the mixed solution of thymidine derivative+uridine derivative) in equal volume. Group of blank solvent control was used as control to exclude the influence of the solvents in Group of 5-FU and Group of 5-FU+thymidine derivative (or the mixed solution of thymidine derivative+uridine derivative) on the results. After additional 48 hours of culture, a Cell Counting Kit-8 (CCK-8) detection kit (C0037, purchased from Shanghai Beyotime Biotechnology) is used to determine the cell survival rate, thereby calculating the proliferative toxicity of 5-Fu/5-DFUR on cells and the relieving effect of the thymidine derivative (or the mixed solution of thymidine derivative+uridine derivative) on the proliferative toxicity. Using GraphPad Prism 6.0 software, the results were statistically analyzed by t-test and plotted.
# (§1) Table 3 lists the combinations of 5-FU and thymidine derivative (or the mixed solution of thymidine derivative+uridine derivative), and the corresponding experimental results (wherein the data in the column of cell survival indicate the corresponding increased percentage of the cell survivals of Group of 5-FU+thymidine derivative or Group of 5-FU+the combination of thymidine derivative and uridine derivative compared with the Group of 5-FU). FIGS. 3-10 list the experimental results of several representative compounds.
# The effect of thymidine derivative or a combination of thymidine derivative and uridine derivative on relieving the proliferative toxicity of a chemotherapeutical drug (5-FU) to HaCaT cells was tested according to the method in Examples 2-29. The test thymidine derivative or the combination of thymidine derivative and uridine derivative, as well as the final concentration of the test compounds were shown in Table 7.
# as §1, with “7” for “3”, “15-21” for “3-10”, “exemplary” for “representative”
# [2] = selected compound final concentration 0.8 μM
# [3] = selected compound final concentration 1.6 μM
# [4] = selected compound final concentration 3.13 μM
# [5] = selected compound final concentration 6.25 μM
# [6] = selected compound final concentration 12.5 μM
# [7] = selected compound final concentration 25 μM
# [8] = selected compound final concentration 50 μM
# [9] = selected compound final concentration 100 μM
# [10] = Homo sapiens, HaCaT, increase vs Group of 5-FU, 5-FU 20 μM, 48 h, read-out: Cell Survival Rate
Compound,Cell Survival Rate (increased percentage of cell survival compared with the Group of 5-FU) (HaCaT cells; [2]),Cell Survival Rate (increased percentage of cell survival compared with the Group of 5-FU) (HaCaT cells; [3]),Cell Survival Rate (increased percentage of cell survival compared with the Group of 5-FU) (HaCaT cells; [4]),Cell Survival Rate (increased percentage of cell survival compared with the Group of 5-FU) (HaCaT cells; [5]),Cell Survival Rate (increased percentage of cell survival compared with the Group of 5-FU) (HaCaT cells; [6]),Cell Survival Rate (increased percentage of cell survival compared with the Group of 5-FU) (HaCaT cells; [7]),Cell Survival Rate (increased percentage of cell survival compared with the Group of 5-FU) (HaCaT cells; [8]),Cell Survival Rate (increased percentage of cell survival compared with the Group of 5-FU) (HaCaT cells; [9]),further results
Cc1ccc(Nc2c(F)cccc2Cl)c(CC(=O)OC[C@H]2O[C@@H](n3cc(C)c(=O)[nH]c3=O)C[C@@H]2O)c1 [T35],23%-31%,25%-33%,42%-48%,64%-70%,95%-101%,84%-91%,85%-92%,39%-47%,Control Rate Forepaws ([1]; gel 1 wt%): 25%; Control Rate Hindpaws ([1]; gel 1 wt%): 37.50%; Control Rate Forepaws ([1]; gel 5 wt%): 75.00%; Control Rate Hindpaws ([1]; gel 5 wt%): 88%
CCC(=O)OC[C@H]1O[C@@H](n2cc(C)c(=O)[nH]c2=O)C[C@@H]1OC(=O)CC [T5],–,–,–,–,–,–,–,–,"Control Rate ([1]; SD rats, gel 2 wt% on hind paws): 30.00%; activation at 1 µM (HaCaT cells; [10]): 18 to 24%; activation at 10 µM (HaCaT cells; [10]): 55 to 65%; activation at 100 µM (HaCaT cells; [10]): 77 to 84%; activation at 500 µM (HaCaT cells; Homo sapiens, HaCaT, increase vs Group of 5-FU, 5-FU 20 μM, compound 500 μM, 48 h, read-out: Cell Survival Rate): 78 to 85%; activation at 1000 µM (HaCaT cells; [10]): 35 to 45%"
Cc1cn([C@H]2C[C@H](OC(=O)[C@@H](C)c3ccc(CC(C)C)cc3)[C@@H](CO)O2)c(=O)[nH]c1=O [T44],–,–,–,13%-20%,27%-35%,53%-60%,69%-76%,–,–
Cc1cn([C@H]2C[C@H](OC(=O)OCC(C)C)[C@@H](COC(=O)OCC(C)C)O2)c(=O)[nH]c1=O [T20],–,–,–,–,–,–,–,–,activation at 1 µM (HaCaT cells; [10]): 48 to 58%; activation at 10 µM (HaCaT cells; [10]): 58 to 66%; activation at 100 µM (HaCaT cells; [10]): 55 to 65%
COc1ccc2c(c1)c(CC(=O)OC[C@H]1O[C@@H](n3cc(C)c(=O)[nH]c3=O)C[C@@H]1O)c(C)n2C(=O)c1ccc(Cl)cc1 [T38],13%-21%,29%-38%,38%-47%,46%-55%,53%-60%,58%-65%,67%-75%,55%-63%,–
Cc1cn([C@H]2C[C@H](O)[C@@H](COC(=O)Cc3ccccc3Nc3c(Cl)cccc3Cl)O2)c(=O)[nH]c1=O [T39],36%-43%,58%-66%,64%-71%,67%-74%,65%-72%,69%-77%,69%-77%,75%-83%,–
Cc1cn([C@H]2C[C@H](OC(=O)C(C)c3cccc(Oc4ccccc4)c3)[C@@H](COC(=O)C(C)c3cccc(Oc4ccccc4)c3)O2)c(=O)[nH]c1=O (some centres unmarked) [T46],–,–,27%-34%,34%-41%,48%-55%,61%-68%,65%-72%,75%-83%,Cell Survival Rate (increased percentage of cell survival compared with the Group of 5-FU) (HaCaT cells; selected compound final concentration 200 μM): 54%-62%
Cc1cn([C@H]2C[C@H](O)[C@@H](COC(=O)[C@@H](C)c3ccc(CC(C)C)cc3)O2)c(=O)[nH]c1=O [T31],23%-30%,29%-38%,37%-43%,41%-47%,44%-51%,–,–,–,–
Cc1cn([C@H]2C[C@H](OC(=O)C(C)c3cccc(Oc4ccccc4)c3)[C@@H](CO)O2)c(=O)[nH]c1=O (some centres unmarked) [T43],23%-31%,49%-56%,72%-79%,91%-98%,125%-133%,99%-106%,100%-107%,34%-41%,–
Cc1cn([C@H]2C[C@H](OC(=O)C(C)(C)C)[C@@H](COC(=O)C(C)(C)C)O2)c(=O)[nH]c1=O [T24],–,–,–,–,–,–,–,–,activation at 1 µM (HaCaT cells; [10]): 27 to 35%; activation at 10 µM (HaCaT cells; [10]): 21 to 27%
Cc1cn([C@H]2C[C@H](O)[C@@H](CO)O2)c(=O)[nH]c1=O [thymidine],–,–,–,–,–,–,–,–,"activation at 200 µM (HaCaT cells; Homo sapiens, HaCaT, increase vs Group of 5-FU, 5-FU 20 μM, compound 200 μM, 48 h, read-out: Cell Survival Rate): 3 to 8%; activation at 1000 µM (HaCaT cells; [10]): 15 to 23%; activation at 1500 µM (HaCaT cells; Homo sapiens, HaCaT, increase vs Group of 5-FU, 5-FU 20 μM, compound 1500 μM, 48 h, read-out: Cell Survival Rate): 11 to 17%; activation at 2000 µM (HaCaT cells; Homo sapiens, HaCaT, increase vs Group of 5-FU, 5-FU 20 μM, compound 2000 μM, 48 h, read-out: Cell Survival Rate): 1 to 6%; activation at 3000 µM (HaCaT cells; Homo sapiens, HaCaT, increase vs Group of 5-FU, 5-FU 20 μM, compound 3000 μM, 48 h, read-out: Cell Survival Rate): -25 to 20%"
